The results in this text go back to article PMC10649927, “Integration of Deep Learning and Sequential Metabolism to Rapidly Screen Dipeptidyl Peptidase (DPP)-IV Inhibitors from Gardenia jasminoides Ellis” (Molecules, 2023).

The structures appear in SMILES notation.

The target of this test is T1, human recombinant DPP-IV (Homo sapiens, UniProt P27487).
T1 construct: gene DPP4; commercial recombinant human enzyme from ProSpec (Rehovot, Israel)
Nature of the test: Gly-Pro-pNA hydrolysis, absorbance at […] nm. The note with it: Gly-Pro-pNA substrate (20 µL of 1.75 mM), 0.1 M Tris-HCl, 0.1 M NaCl, 1 mM EDTA, pH 8.0, 37 °C, 30 min. In kind it is biochemical.

T1 sequence (P27487 29-766 limits assumed): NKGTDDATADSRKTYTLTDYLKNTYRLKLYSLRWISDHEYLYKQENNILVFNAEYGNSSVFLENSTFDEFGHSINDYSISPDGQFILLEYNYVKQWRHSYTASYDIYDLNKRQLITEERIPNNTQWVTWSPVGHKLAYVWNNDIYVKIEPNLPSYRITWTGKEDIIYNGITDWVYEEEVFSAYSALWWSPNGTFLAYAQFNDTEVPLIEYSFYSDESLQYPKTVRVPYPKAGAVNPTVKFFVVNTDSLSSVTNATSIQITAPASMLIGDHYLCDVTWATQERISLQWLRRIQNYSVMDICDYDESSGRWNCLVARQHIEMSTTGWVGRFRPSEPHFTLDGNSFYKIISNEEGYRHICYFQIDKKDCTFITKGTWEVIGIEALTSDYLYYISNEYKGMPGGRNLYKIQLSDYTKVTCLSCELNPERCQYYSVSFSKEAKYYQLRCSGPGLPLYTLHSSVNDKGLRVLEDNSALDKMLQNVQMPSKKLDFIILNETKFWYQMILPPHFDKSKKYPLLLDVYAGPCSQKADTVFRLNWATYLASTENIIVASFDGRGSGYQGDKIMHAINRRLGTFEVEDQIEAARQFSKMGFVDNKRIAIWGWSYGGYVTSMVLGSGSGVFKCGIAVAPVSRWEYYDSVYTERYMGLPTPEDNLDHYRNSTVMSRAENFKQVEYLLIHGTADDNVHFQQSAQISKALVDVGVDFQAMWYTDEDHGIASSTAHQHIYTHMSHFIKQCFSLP

Consider `O=C(O)C1=CO[C@@H](O[C@@H]2O[C@H](CO)[C@@H](O)[C@H](O)[C@H]2O)[C@@H]2C(CO)=C[C@@H](O)[C@H]12` [compound 3, scandoside], for which the “% inhibition at 1 mM” value is listed as “the six GJE compounds inhibited the activity of DPP-IV”.

On to `O=C(O)C1=CO[C@@H](O[C@@H]2O[C@H](CO)[C@@H](O)[C@H](O)[C@H]2O)[C@@H]2C(CO)=CC[C@H]12` [compound 4, geniposidic acid], for which the “% inhibition at 1 mM” value is listed as “the six GJE compounds inhibited the activity of DPP-IV”.

Consider `COC(=O)C1=CO[C@@H](O[C@@H]2O[C@H](CO)[C@@H](O)[C@H](O)[C@H]2O)[C@H]2[C@@H]1[C@H](O)C[C@]2(C)O` [compound 5, shanzhiside methyl ester], for which the “% inhibition at 1 mM” value is listed as “the six GJE compounds inhibited the activity of DPP-IV”.

Consider `C[C@]1(O)C[C@@H](O)[C@@H]2C(C(=O)O)=CO[C@@H](O[C@@H]3O[C@H](CO)[C@@H](O)[C@H](O)[C@H]3O)[C@@H]21` [compound 6, shanzhiside], for which the “% inhibition at 1 mM” value is recorded as “the six GJE compounds inhibited the activity of DPP-IV”.
